Assay results from PMC9558223, “Staphylococcus aureus is able to generate resistance to novel lipoglycopeptide antibiotic gausemycin A” (Frontiers in Microbiology, 2022).
Converted amounts (≈) assume the structure as drawn. Where two headings read alike, the source gives them in different places. Where no end group is shown, it is not given here.

Assays:
[1] = tested on: S. aureus 5812R; assay: microbe, parasite or virus in culture; type: cell-based, Staphylococcus aureus; settings: for MIC: 24 h; for Change of MIC / resistance of S. aureus 5812R compared to parent strain S. aureus FDA209P: ratio of MIC for 5812R and FDA209P; for Cross-resistance of S. aureus 5812R: susceptibility testing of gausemycin A-resistant strain
Method: (§1) Minimal inhibitory concentration (MIC) was determined as previously described in Fuchs et al. ([2000]), following the Clinical and Laboratory Standards Institute (CLSI) guidelines for broth microdilution MIC assay. The bacteria were incubated in a 96-well microtiter plate (Eppendorf, Germany) containing 90 μL of inoculum prepared in growth media at 10^6 CFU/ml with 10 μL of twofold dilutions of the antibiotics. The results were evaluated after 24 h of cultivation at 37 °C. The bacterial growth was assessed by scanning the absorbance data at 600 nm obtained by spectrophotometer (Multiscan GO, Thermo Fisher Scientific, US).

[2] = tested on: S. aureus FDA209P; assay: microbe, parasite or virus in culture; type: cell-based, Staphylococcus aureus; settings: broth microdilution (CLSI), 10^6 CFU/ml, 24 h, 37 °C, absorbance at 600 nm
Method: as §1

[3] = tested on: S. aureus 5812R; assay: microbe, parasite or virus in culture; type: cell-based, Staphylococcus aureus; settings: 24 h; for MIC: Staphylococcus aureus, 5812R, read-out: MIC alone
Method: The effect of gausemycin A in combination with other antibiotics was evaluated using the checkerboard technique with modifications (Nwabor et al., [2021]). Briefly, 80 μL of diluted bacterial suspension (10^6 CFU/mL) was added to wells containing 10 μL of sub-inhibitory concentrations of gausemycin A and 10 μL of sub-inhibitory concentrations of conventional antibiotics. The plates were incubated for 24 h at 37°C. The effects of the antimicrobial combination were defined according to the fractional inhibitory concentration index (FICI). The ΣFICs were calculated as follows:
where FIC A is the MIC of drug A in the combination/MIC of drug A alone; and FIC B is the MIC of drug B in the combination/MIC of drug B alone. The result was interpreted as FIC ≤ 0.5 = Synergism, FIC > 0.5 to 1 = additivity, FIC >1 to 2 = indifference, and FIC >2 antagonism.

[4] = tested on: S. aureus FDA209P; assay: Serial passaging in increasing concentrations of antimicrobials; type: cell-based, Staphylococcus aureus; settings: for The highest concentration of antibiotic allowing growth: Mueller-Hinton II broth (CaCl2 50 mg/L), 37 °C, 24 h
Method: Gausemycin A-resistant variant was obtained by serial passaging as described previously (Pollard et al., [2012]). Isolated colonies of S. aureus FDA209P were inoculated into Mueller-Hinton II broth (CaCl2 50 mg/L) containing twofold dilutions of gausemycin A. The cultures were incubated at 37 °C with aeration for 24 h. After incubation, bacterial cells growing at the highest concentration of gausemycin A (below the MIC) were harvested and used for the next passage. The process was repeated for 20 passages. The dynamic of the developing resistance to gausemycin A was evaluated in comparison with daptomycin and ramoplanin. The experiments were performed in two independent series on separate days with three technical replicates each.

[5] = tested on: biofilm-embedded staphylococcal cells; settings: ref Vasilchenko et al., 2020; cited from earlier work
Text: These lipoglycopeptides were firstly described in 2016 (Lapchinskaya et al., [2016]), and consequently named gausemycins A and B (Tyurin et al., [2021]). Gausemycin A is a macrocyclic peptide containing 14 amino acids, where tyrosine is glycosylated with arabinose, which makes gausemycin A unique among natural peptide antibiotics (Tyurin et al., [2021]). The closest structurally related compounds are depsipeptides (daptomycin, taromycins, and cadazides) and cyclopeptides ( ...

[6] = Staphylococcus aureus, read-out: MIC
[7] = S. aureus 5812R, broth microdilution (CLSI), 10^6 CFU/ml, 37 °C, absorbance at 600 nm

## CC1(C)S[C@@H]2[C@H](NC(=O)[C@H](N)c3ccccc3)C(=O)N2[C@H]1C(=O)O [Ampicillin]
[1]; Staphylococcus aureus, 5812R
  MIC: 1.25 µg/mL (≈ 3.58 µM)
[2]; [6]
  MIC: 0.16 µg/mL (≈ 0.458 µM)
[3]; S. aureus 5812R, combination Amp + GauA, checkerboard, 37 °C
  MIC of Amp in combination: 0.63 µg/mL
[3]
  MIC: 1.25 µg/mL

## O=C(O)c1cn(C2CC2)c2cc(N3CCNCC3)c(F)cc2c1=O [Ciprofloxacin]
[3]; S. aureus 5812R, combination Cip+ GauA, checkerboard, 37 °C
  MIC of Cip in combination: 0.18 µg/mL

## CNC(C)C1CCC(N)C(OC2C(N)CC(N)C(OC3OCC(C)(O)C(NC)C3O)C2O)O1 (stereo not shown) [Gentamicin]
[1]; Staphylococcus aureus, 5812R
  MIC: 1.56 µg/mL (≈ 3.27 µM)
[1]
  Change of MIC / resistance of S. aureus 5812R compared to parent strain S. aureus FDA209P: 7.8 fold
  Cross-resistance of S. aureus 5812R: cross-resistance
[2]; [6]
  MIC: 0.2 µg/mL (≈ 0.419 µM)
[3]; S. aureus 5812R, combination Gen+ GauA, checkerboard, 37 °C
  MIC of Gen in combination: 0.75 µg/mL
[3]
  MIC: 1.56 µg/mL

## Ramoplanin
[4]; passage 1
  The highest concentration of antibiotic allowing growth: 3.12 µg/mL
[4]; passage 2
  The highest concentration of antibiotic allowing growth: 6.25 µg/mL
[4]; passage 3
  The highest concentration of antibiotic allowing growth: 6.25 µg/mL
[4]; passage 4
  The highest concentration of antibiotic allowing growth: 12.5 µg/mL
[4]; passage 5
  The highest concentration of antibiotic allowing growth: 50 µg/mL
[4]; passage 6
  The highest concentration of antibiotic allowing growth: 50 µg/mL
[4]; passage 7
  The highest concentration of antibiotic allowing growth: 50 µg/mL
[4]; passage 8
  The highest concentration of antibiotic allowing growth: 100 µg/mL
[4]; passage 9
  The highest concentration of antibiotic allowing growth: 100 µg/mL
[4]; passage 10
  The highest concentration of antibiotic allowing growth: 100 µg/mL
[4]; passage 11
  The highest concentration of antibiotic allowing growth: >100 µg/mL
[4]; passage 12
  The highest concentration of antibiotic allowing growth: >100 µg/mL
[4]; passage 13
  The highest concentration of antibiotic allowing growth: >100 µg/mL
[4]; passage 14
  The highest concentration of antibiotic allowing growth: >100 µg/mL
[4]; passage 15
  The highest concentration of antibiotic allowing growth: >100 µg/mL
[4]; passage 16
  The highest concentration of antibiotic allowing growth: >100 µg/mL
[4]; passage 17
  The highest concentration of antibiotic allowing growth: >100 µg/mL
[4]; passage 18
  The highest concentration of antibiotic allowing growth: >100 µg/mL
[4]; passage 19
  The highest concentration of antibiotic allowing growth: >100 µg/mL
[4]; passage 20
  The highest concentration of antibiotic allowing growth: >100 µg/mL
[4]; serial passages with sub-inhibitory concentrations
  Number of passages within which resistance was formed: ≤ 10 passages
[1]; [7]
  MIC: 3.12 µg/mL
[1]
  Change of MIC / resistance of S. aureus 5812R compared to parent strain S. aureus FDA209P: did not differ
  Cross-resistance of S. aureus 5812R: absent
[2]
  MIC: 3.12 µg/mL

## CN[C@H](CC(C)C)C(=O)N[C@H]1C(=O)N[C@@H](CC(N)=O)C(=O)N[C@H]2C(=O)N[C@H]3C(=O)N[C@H](C(=O)N[C@H](C(=O)O)c4cc(O)cc(O)c4-c4cc3ccc4O)[C@H](O)c3ccc(c(Cl)c3)Oc3cc2cc(c3O[C@@H]2O[C@H](CO)[C@@H](O)[C@H](O)[C@H]2O[C@H]2C[C@](C)(N)[C@H](O)[C@H](C)O2)Oc2ccc(cc2Cl)[C@H]1O [Vancomycin]
[1]; [7]
  MIC: 0.78 µg/mL (≈ 0.538 µM)
[1]
  Change of MIC / resistance of S. aureus 5812R compared to parent strain S. aureus FDA209P: did not differ
  Cross-resistance of S. aureus 5812R: absent
[2]
  MIC: 0.78 µg/mL (≈ 0.538 µM)

## CN(C)[C@@H]1C(O)=C(C(N)=O)C(=O)[C@@]2(O)C(O)=C3C(=O)c4c(O)cccc4[C@@](C)(O)[C@H]3C[C@@H]12 [Tetracycline]
[1]; Staphylococcus aureus, 5812R
  MIC: 0.94 µg/mL (≈ 2.12 µM)
[1]
  Cross-resistance of S. aureus 5812R: cross-resistance
[2]; [6]
  MIC: 0.47 µg/mL (≈ 1.06 µM)

## CCCCCCCCCC(=O)N[C@@H](Cc1c[nH]c2ccccc12)C(=O)N[C@H](CC(N)=O)C(=O)N[C@@H](CC(=O)O)C(=O)N[C@@H]1C(=O)NCC(=O)N[C@@H](CCCN)C(=O)N[C@@H](CC(=O)O)C(=O)N[C@H](C)C(=O)N[C@@H](CC(=O)O)C(=O)NCC(=O)N[C@H](CO)C(=O)N[C@@H]([C@H](C)CC(=O)O)C(=O)N[C@@H](CC(=O)c2ccccc2N)C(=O)O[C@@H]1C [Daptomycin]
[4]; passage 1
  The highest concentration of antibiotic allowing growth: 1.25 µg/mL
[4]; passage 2
  The highest concentration of antibiotic allowing growth: 1.25 µg/mL
[4]; passage 3
  The highest concentration of antibiotic allowing growth: 1.25 µg/mL
[4]; passage 4
  The highest concentration of antibiotic allowing growth: 1.25 µg/mL
[4]; passage 5
  The highest concentration of antibiotic allowing growth: 1.25 µg/mL
[4]; passage 6
  The highest concentration of antibiotic allowing growth: 1.25 µg/mL
[4]; passage 7
  The highest concentration of antibiotic allowing growth: 1.25 µg/mL
[4]; passage 8
  The highest concentration of antibiotic allowing growth: 1.25 µg/mL
[4]; passage 9
  The highest concentration of antibiotic allowing growth: 1.25 µg/mL
[4]; passage 10
  The highest concentration of antibiotic allowing growth: 1.25 µg/mL
[4]; passage 11
  The highest concentration of antibiotic allowing growth: 1.25 µg/mL
[4]; passage 12
  The highest concentration of antibiotic allowing growth: 2.50 µg/mL
[4]; passage 13
  The highest concentration of antibiotic allowing growth: 2.50 µg/mL
[4]; passage 14
  The highest concentration of antibiotic allowing growth: 2.50 µg/mL
[4]; passage 15
  The highest concentration of antibiotic allowing growth: 2.50 µg/mL
[4]; passage 16
  The highest concentration of antibiotic allowing growth: 2.50 µg/mL
[4]; passage 17
  The highest concentration of antibiotic allowing growth: 2.50 µg/mL
[4]; passage 18
  The highest concentration of antibiotic allowing growth: 2.50 µg/mL
[4]; passage 19
  The highest concentration of antibiotic allowing growth: 2.50 µg/mL
[4]; passage 20
  The highest concentration of antibiotic allowing growth: 5.0 µg/mL
[1]; [7]
  MIC: 5.0 µg/mL (≈ 3.09 µM)
[1]
  Change of MIC / resistance of S. aureus 5812R compared to parent strain S. aureus FDA209P: 4 fold
  Cross-resistance of S. aureus 5812R: cross-resistance
[2]
  MIC: 1.25 µg/mL (≈ 0.771 µM)
[3]; S. aureus 5812R, single antibiotic, 10^6 CFU/mL, 37 °C
  MIC alone: 5.0 µg/mL
[5]
  Inhibition of biofilm-embedded staphylococcal cells: inactive

## Cc1nnc(SCC2=C(C(=O)O)N3C(=O)[C@@H](NC(=O)Cn4cnnn4)[C@H]3SC2)s1 [Cefazolin]
[1]; Staphylococcus aureus, 5812R
  MIC: 0.4 µg/mL (≈ 0.88 µM)
[1]
  Cross-resistance of S. aureus 5812R: cross-resistance
[2]; [6]
  MIC: 0.2 µg/mL (≈ 0.44 µM)

## Nisin (ITSISLCTPGCKTGALMGCNMKTATCHCSIHVSK; not fully specified (some residues, bridges); cysteine pairing not given here; UniProt P13068 24-57, looked up)
[1]; [7]
  MIC: 7.8 µg/mL
[1]
  Change of MIC / resistance of S. aureus 5812R compared to parent strain S. aureus FDA209P: did not differ
  Cross-resistance of S. aureus 5812R: absent
[2]
  MIC: 7.8 µg/mL
